According to patent EP1328811B1, “HCV MOSAIC ANTIGEN COMPOSITION” (MedMira Inc., priority 2000, dated 2005):

Test system: anti-HCV antibodies
Assay: Immunofiltration dotting assay of individual peptide-carrier conjugates (epitope mapping, Example 4)
Assay type: binding, human
Settings: for reactivity with HCV positive samples / reactivity with positive HCV samples: HCV positive specimens n=10; for reactivity with positive HCV samples: peptide conjugates, independently of the carrier used (BSA, HSA, KLH), peptide-carrier mass ratio 0.5; for reactivity with negative HCV samples: peptide-carrier conjugates, HCV negative specimens n=10
Source text: Several versions of antibody capture assay formats are available which differ mainly according to the type of solid supports employed and the detection technology used to determine the presence of immunological complexes formed by antigen-antibody recognition and binding. A commercially available immunofiltration dotting assay procedure (MedMira Inc., Halifax, N.S.) was used to test for immunoreactivity of the peptide-carrier conjugates based on colloidal gold detection using a nitrocellulose membrane as a solid support and is described below.
The HCV positive/negative specimens used to evaluate the mosaic antigen composition were provided by Dr. Spencer Lee (Director of Virology/Immunology, Microbiology Division, Department of Pathology and Laboratory Medicine) of the Queen Elizabeth II Health Sciences Center (Halifax, Nova Scotia). All specimens were tested with the Abbott's HCV test using the Axsym system platform. The Riba-II (Chiron) immunoblot assay was used as a confirmation test.
The maleimide-activated carrier molecules (KLH, BSA and HSA) were purchased from Pierce (Rockford, IL) and conjugated with cysteine containing peptides using a peptide-carrier mass ratio of 0.5 except mentioned otherwise.
Typically, the conjugates were passively adsorbed at a concentration of 1 mg/ml (bicarbonate buffer, 50 mM, pH 9.6) by applying one microliter of peptide-carrier conjugate on the nitrocellulose membrane. The antigen dotted membrane was air-dried. Before the test, the membrane was primed with 3 drops of washing buffer (Tris/phosphate/sodium chloride, pH 9.6 containing 0.25% Tween®20). The tests were performed as follows.
One drop of specimen serum was added to the membrane and after complete absorption of the sample, the membrane was washed with 4 drops of washing buffer. Four drops of protein A/colloidal gold solution (concentration corresponding to an optical density of 2 at 520 nm) was added to the membrane and the membrane was washed with 3 more drops of washing solution. The results were recorded visually within 5 minutes after completion of the test.
The identification of major linear epitopes was carried out using selected peptides corresponding to various regions of the HCV polyprotein and panels of well-characterized HCV positive and negative human sera. Additionally, a comparison of different carrier components was made based on a sensitivity/specificity assessment of various peptide-carrier conjugates.
Peptides were individually conjugated to three different carriers (BSA, HSA and KLH) and adsorbed passively on a nitrocellulose membrane support. Tests were performed by immunofiltration dotting assay format using a,commercially available flow-through assay platform (MedMira Inc., Halifax, N.S.).

Row | Sequence | reactivity with HCV positive samples (peptide conjugated with BSA) | reactivity with HCV positive samples (peptide conjugated with HSA) | reactivity with HCV positive samples (peptide conjugated with KLH) | reactivity with positive HCV samples | reactivity with negative HCV samples
1 | ATRKTSERSQPRGRRQPI [MDL-5, HCV core region antigenic peptide] | reactive with most HCV positive samples | unreactive | reactive with most HCV positive samples |  | 
2 | MSTNPKPQRKTKRNTNRR [MDL-1, HCV core region antigenic peptide] |  |  |  | more consistent reactivity | No significant reactivity
3 | KTKRNTNRRPQDVKF [MDL-2, HCV core region antigenic peptide] |  |  |  | more consistent reactivity | No significant reactivity
4 | PKARQPEGRAWAQPG [MDL-6] | reactive with most HCV positive samples | reactive with most HCV positive samples | poorly reactive |  | 
5 | GPRLGVRATRKTSERSQP [MDL-4, HCV core region antigenic peptide] | marginally reactive or unreactive | marginally reactive or unreactive | reactive with most HCV positive samples |  | 
6 | GQIVGGVYLLPRRGP [MDL-3, HCV core region antigenic peptide] |  |  |  | more consistent reactivity | No significant reactivity
